Test results from US20240218022A1, “ANTI-VISTA MACROCYCLIC PEPTIDES AND COMPOSITIONS” (BRISTOL-MYERS SQUIBB COMPANY, priority 2022, published 2024).
pIC50: −log10 of the molar value. Starred links: 1 amine or outer side, 2 acyl side, 3 side chain; linkers in the order of their positions; H or OH if unused. Positions of bridges follow the written chain, without caps; N, C: chain ends. Non-standard residues stand in square brackets, D forms with d. Residues, ends and D or L forms follow the SMILES beside them. Phe(4-CONH2) = NC(=O)c1ccc(C[C@H](N)C(=O)O)cc1; Phe(4-COOH) = N[C@@H](Cc1ccc(C(=O)O)cc1)C(=O)O; γGlu = O=C(O)[C@H](CCC(=O)[*:2])N[*:1]; Val(3-OH) = CC(C)(O)[C@H](N)C(=O)O; 4Pal = N[C@@H](Cc1ccncc1)C(=O)O; NMeE = CN[C@@H](CCC(=O)O)C(=O)O; Ahp(2) = CCCCC[C@H](N)C(=O)O; NMeNle = CCCC[C@H](NC)C(=O)O; Tle = CC(C)(C)[C@H](N)C(=O)O; NHexGly = CCCCCCNCC(=O)O; Nle = CCCC[C@H](N)C(=O)O; Aun = NCCCCCCCCCCC(=O)O; Nva = CCC[C@H](N)C(=O)O; AEEA = NCCOCCOCC(=O)O

Molecular target: T1, mouse VISTA (mVISTA) (Mus musculus, UniProt Q9D659)
T1 construct: expressed in transfected cells; host or cells: Human embryonic kidney 293T cells
T1 sequence (Q9D659 33-308): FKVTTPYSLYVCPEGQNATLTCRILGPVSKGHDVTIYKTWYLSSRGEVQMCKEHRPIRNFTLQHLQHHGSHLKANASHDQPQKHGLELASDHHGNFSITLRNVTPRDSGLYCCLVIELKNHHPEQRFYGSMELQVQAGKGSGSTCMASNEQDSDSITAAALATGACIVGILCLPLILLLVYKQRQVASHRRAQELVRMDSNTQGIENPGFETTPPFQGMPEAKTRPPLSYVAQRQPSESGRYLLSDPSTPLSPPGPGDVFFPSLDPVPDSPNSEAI
Test: Cell-Based Binding High-Content Assay For mVISTA (HC CBA mVISTA)
Settings: read-out: HC CBA mVISTA IC50
Summary of the method: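 293T cells expressing mouse VISTA, with compounds added either after seeding ("no wash") or before seeding and then washed out after 1 h. Biotinylated peptide 2 nM for 30 min at room temperature, then detection with Alexa 647–streptavidin. After fixation with Hoechst stain, plates were high-content imaged; IC50 from four-parameter logistic fit.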

| Compound | pIC50 |
| --- | --- |
| CCCCCCN1CC(=O)N[C@@H](Cc2ccc(O)cc2)C(=O)N[C@@H](CCCC)C(=O)N[C@@H](CC(N)=O)C(=O)N[C@@H](CCCNC(=N)N)C(=O)N(C)[C@@H](CCCC)C(=O)N[C@@H](CCCCC)C(=O)N2CCC[C@H]2C(=O)N[C@@H](C(C)(C)C)C(=O)N[C@@H](CO)C(=O)N[C@H](C(=O)NCCOCCOCC(=O)N[C@@H](CCC(=O)NCCOCCOCC(=O)NCCCCCCCCCCC(=O)O)C(=O)O)CSCC(=O)N[C@@H](Cc2ccc(C(=O)O)cc2)C(=O)N[C@@H](Cc2ccc(O)cc2)C(=O)N[C@@H](CC(=O)O)C1=O [compound 2251] ({CH2CO}-[Phe(4-COOH)]YD[NHexGly]Y[Nle]NR[NMeNle][Ahp(2)]P[Tle]SC[AEEA][γGlu][AEEA][Aun]-OH; thioether N-14) | 7.54 |
| CCCCCCN1CC(=O)N[C@@H](Cc2ccc(O)cc2)C(=O)N[C@@H](CCCC)C(=O)N[C@@H](CC(N)=O)C(=O)N[C@@H](CCCNC(=N)N)C(=O)N(C)[C@@H](CCCC)C(=O)N[C@@H](CCCCC)C(=O)N2CCC[C@H]2C(=O)N[C@@H](C(C)(C)C)C(=O)N[C@@H](CO)C(=O)N[C@H](C(=O)NCCOCCOCC(=O)N[C@@H](CCC(=O)NCCOCCOCC(=O)NCCCCCCCCCCC(=O)O)C(=O)O)CSCC(=O)N[C@@H](Cc2ccc(O)cc2)C(=O)N[C@@H](Cc2ccc(O)cc2)C(=O)N[C@@H](CC(=O)O)C1=O [compound 2252] ({CH2CO}-YYD[NHexGly]Y[Nle]NR[NMeNle][Ahp(2)]P[Tle]SC[AEEA][γGlu][AEEA][Aun]-OH; thioether N-14) | 7.92 |
| CCCCCCN1CC(=O)N[C@@H](Cc2ccc(O)cc2)C(=O)N[C@@H](CCCC)C(=O)N[C@@H](CC(N)=O)C(=O)N[C@@H](CCCNC(=N)N)C(=O)N[C@@H](CCCCN)C(=O)N[C@@H](CCCCC)C(=O)N2CCC[C@H]2C(=O)N[C@@H](C(C)(C)C)C(=O)N[C@@H](CC(=O)O)C(=O)N[C@H](C(=O)NCCOCCOCC(=O)N[C@@H](CCC(=O)NCCOCCOCC(=O)NCCCCCCCCCCC(=O)O)C(=O)O)CSCC(=O)N[C@@H](Cc2ccccc2)C(=O)N[C@@H](Cc2c[nH]c3ccccc23)C(=O)N[C@@H](CC(=O)O)C1=O [compound 2254] ({CH2CO}-FWD[NHexGly]Y[Nle]NRK[Ahp(2)]P[Tle]DC[AEEA][γGlu][AEEA][Aun]-OH; thioether N-14) | 7.55 |
| CCCCCCN1CC(=O)N[C@@H](Cc2ccc(O)cc2)C(=O)N[C@@H](CCC)C(=O)N[C@@H](CC(N)=O)C(=O)N[C@@H](CCCNC(=N)N)C(=O)N(C)[C@@H](CCCC)C(=O)N[C@@H](CCCCC)C(=O)N2CCC[C@H]2C(=O)N[C@@H](C(C)(C)C)C(=O)N[C@@H](CC(=O)O)C(=O)N[C@H](C(=O)NCCOCCOCC(=O)N[C@@H](CCC(=O)NCCOCCOCC(=O)NCCCCCCCCCCC(=O)O)C(=O)O)CSCC(=O)N[C@@H](Cc2ccccc2)C(=O)N[C@@H](Cc2c[nH]c3ccccc23)C(=O)N[C@@H](CC(=O)O)C1=O [compound 2255] ({CH2CO}-FWD[NHexGly]Y[Nva]NR[NMeNle][Ahp(2)]P[Tle]DC[AEEA][γGlu][AEEA][Aun]-OH; thioether N-14) | 7.57 |
| CCCCCCN1CC(=O)N[C@@H](Cc2ccc(O)cc2)C(=O)N[C@@H](CCCC)C(=O)N[C@@H](CC(N)=O)C(=O)N[C@@H](CCCNC(=N)N)C(=O)N(C)[C@@H](CCCC)C(=O)N[C@@H](CCCCC)C(=O)N2CCC[C@H]2C(=O)N[C@@H](C(C)(C)C)C(=O)N[C@@H](CO)C(=O)N[C@H](C(=O)NCCOCCOCC(=O)N[C@@H](CCC(=O)NCCOCCOCC(=O)NCCCCCCCCCCC(=O)O)C(=O)O)CSCC(=O)N[C@@H](Cc2ccncc2)C(=O)N[C@@H](Cc2ccc(O)cc2)C(=O)N[C@@H](CC(=O)O)C1=O [compound 2257] ({CH2CO}-[4Pal]YD[NHexGly]Y[Nle]NR[NMeNle][Ahp(2)]P[Tle]SC[AEEA][γGlu][AEEA][Aun]-OH; thioether N-14) | 7.39 |
| CCCCCCN1CC(=O)N[C@@H](Cc2ccc(O)cc2)C(=O)N[C@@H](CCCC)C(=O)N[C@@H](CC(N)=O)C(=O)N[C@@H](CCCNC(=N)N)C(=O)N(C)[C@@H](CCCC)C(=O)N[C@@H](CCCCC)C(=O)N2CCC[C@H]2C(=O)N[C@@H](C(C)(C)C)C(=O)N[C@@H](CO)C(=O)N[C@H](C(=O)NCCOCCOCC(=O)N[C@@H](CCC(=O)NCCOCCOCC(=O)NCCCCCCCCCCC(=O)O)C(=O)O)CSCC(=O)N[C@@H](Cc2ccc(C(N)=O)cc2)C(=O)N[C@@H](Cc2ccc(O)cc2)C(=O)N[C@@H](CC(=O)O)C1=O [compound 2259] ({CH2CO}-[Phe(4-CONH2)]YD[NHexGly]Y[Nle]NR[NMeNle][Ahp(2)]P[Tle]SC[AEEA][γGlu][AEEA][Aun]-OH; thioether N-14) | 7.42 |
| CCCCCCN1CC(=O)N[C@@H](Cc2ccc(O)cc2)C(=O)N[C@@H](CC(C)C)C(=O)N[C@@H](CC(N)=O)C(=O)N[C@@H](CCCNC(=N)N)C(=O)N(C)[C@@H](CCCC)C(=O)N[C@@H](CCCCC)C(=O)N2CCC[C@H]2C(=O)N[C@@H](C(C)(C)C)C(=O)N[C@@H](CO)C(=O)N[C@H](C(=O)NCCOCCOCC(=O)N[C@@H](CCC(=O)NCCOCCOCC(=O)NCCCCCCCCCCC(=O)O)C(=O)O)CSCC(=O)N[C@@H](Cc2ccccc2)C(=O)N[C@@H](Cc2ccc(O)cc2)C(=O)N[C@@H](CC(=O)O)C1=O [compound 2260] ({CH2CO}-FYD[NHexGly]YLNR[NMeNle][Ahp(2)]P[Tle]SC[AEEA][γGlu][AEEA][Aun]-OH; thioether N-14) | 7.80 |

Continued by rising pIC50, values first:

| pIC50 | Compound |
| --- | --- |
| 7.30 | CCCCCCN1CC(=O)N[C@@H](Cc2ccc(O)cc2)C(=O)N[C@@H](CCCC)C(=O)N[C@@H](CC(N)=O)C(=O)N[C@@H](CCCNC(=N)N)C(=O)N(C)[C@@H](CCCC)C(=O)N[C@@H](CCCCC)C(=O)N2CCC[C@H]2C(=O)N[C@@H](C(C)(C)O)C(=O)N[C@@H](CO)C(=O)N[C@H](C(=O)NCCOCCOCC(=O)N[C@@H](CCC(=O)NCCOCCOCC(=O)NCCCCCCCCCCC(=O)O)C(=O)O)CSCC(=O)N[C@@H](Cc2ccccc2)C(=O)N[C@@H](Cc2c[nH]c3ccccc23)C(=O)N[C@@H](CC(=O)O)C1=O [compound 2250] ({CH2CO}-FWD[NHexGly]Y[Nle]NR[NMeNle][Ahp(2)]P[Val(3-OH)]SC[AEEA][γGlu][AEEA][Aun]-OH; thioether N-14) |
| 7.34 | CCCCCCN1CC(=O)N[C@@H](Cc2ccc(O)cc2)C(=O)N[C@@H](CCCC)C(=O)N[C@@H](CC(N)=O)C(=O)N[C@@H](CCCNC(=N)N)C(=O)N(C)[C@@H](CCC(=O)O)C(=O)N[C@@H](CCCCC)C(=O)N2CCC[C@H]2C(=O)N[C@@H](C(C)(C)C)C(=O)N[C@@H](CO)C(=O)N[C@H](C(=O)NCCOCCOCC(=O)N[C@@H](CCC(=O)NCCOCCOCC(=O)NCCCCCCCCCCC(=O)O)C(=O)O)CSCC(=O)N[C@@H](Cc2ccccc2)C(=O)N[C@@H](Cc2c[nH]c3ccccc23)C(=O)N[C@@H](CC(=O)O)C1=O [compound 2248] ({CH2CO}-FWD[NHexGly]Y[Nle]NR[NMeE][Ahp(2)]P[Tle]SC[AEEA][γGlu][AEEA][Aun]-OH; thioether N-14) |
| 7.43 | CCCCCCN1CC(=O)N[C@@H](Cc2ccc(O)cc2)C(=O)N[C@@H](CCC)C(=O)N[C@@H](CC(N)=O)C(=O)N[C@@H](CCCNC(=N)N)C(=O)N(C)[C@@H](CCCC)C(=O)N[C@@H](CCCCC)C(=O)N2CCC[C@H]2C(=O)N[C@@H](C(C)(C)C)C(=O)N[C@@H](CO)C(=O)N[C@H](C(=O)NCCOCCOCC(=O)N[C@@H](CCC(=O)NCCOCCOCC(=O)NCCCCCCCCCCC(=O)O)C(=O)O)CSCC(=O)N[C@@H](Cc2ccccc2)C(=O)N[C@@H](Cc2c[nH]c3ccccc23)C(=O)N[C@@H](CC(=O)O)C1=O [compound 2258] ({CH2CO}-FWD[NHexGly]Y[Nva]NR[NMeNle][Ahp(2)]P[Tle]SC[AEEA][γGlu][AEEA][Aun]-OH; thioether N-14) |
| 7.62 | CCCCCCN1CC(=O)N[C@@H](Cc2ccc(O)cc2)C(=O)N[C@@H](CC(C)C)C(=O)N[C@@H](CC(N)=O)C(=O)N[C@@H](CCCNC(=N)N)C(=O)N(C)[C@@H](CCCC)C(=O)N[C@@H](CCCCC)C(=O)N2CCC[C@H]2C(=O)N[C@@H](C(C)(C)C)C(=O)N[C@@H](CC(=O)O)C(=O)N[C@H](C(=O)NCCOCCOCC(=O)N[C@@H](CCC(=O)NCCOCCOCC(=O)NCCCCCCCCCCC(=O)O)C(=O)O)CSCC(=O)N[C@@H](Cc2ccccc2)C(=O)N[C@@H](Cc2ccc(O)cc2)C(=O)N[C@@H](CC(=O)O)C1=O [compound 2261] ({CH2CO}-FYD[NHexGly]YLNR[NMeNle][Ahp(2)]P[Tle]DC[AEEA][γGlu][AEEA][Aun]-OH; thioether N-14) |
| 7.68 | CCCCCCN1CC(=O)N[C@@H](Cc2ccc(O)cc2)C(=O)N[C@@H](CCCC)C(=O)N[C@@H](CC(N)=O)C(=O)N[C@@H](CCCNC(=N)N)C(=O)N(C)[C@@H](CCCC)C(=O)N[C@@H](CCCCC)C(=O)N2CCC[C@H]2C(=O)N[C@@H](C(C)(C)C)C(=O)N[C@@H](CO)C(=O)N[C@H](C(=O)NCCOCCOCC(=O)N[C@@H](CCC(=O)NCCOCCOCC(=O)NCCCCCCCCCCC(=O)O)C(=O)O)CSCC(=O)N[C@@H](Cc2ccncc2)C(=O)N[C@@H](Cc2c[nH]c3ccccc23)C(=O)N[C@@H](CC(=O)O)C1=O [compound 2253] ({CH2CO}-[4Pal]WD[NHexGly]Y[Nle]NR[NMeNle][Ahp(2)]P[Tle]SC[AEEA][γGlu][AEEA][Aun]-OH; thioether N-14) |
| 7.86 | CCCCCCN1CC(=O)N[C@@H](Cc2ccc(O)cc2)C(=O)N[C@@H](CCCC)C(=O)N[C@@H](CC(N)=O)C(=O)N[C@@H](CCCNC(=N)N)C(=O)N(C)[C@@H](CCCC)C(=O)N[C@@H](CCCCC)C(=O)N2CCC[C@H]2C(=O)N[C@@H](C(C)(C)C)C(=O)N[C@@H](CO)C(=O)N[C@H](C(=O)NCCOCCOCC(=O)N[C@@H](CCC(=O)NCCOCCOCC(=O)NCCCCCCCCCCC(=O)O)C(=O)O)CSCC(=O)N[C@@H](Cc2ccc(C(=O)O)cc2)C(=O)N[C@@H](Cc2c[nH]c3ccccc23)C(=O)N[C@@H](CC(=O)O)C1=O [compound 2256] ({CH2CO}-[Phe(4-COOH)]WD[NHexGly]Y[Nle]NR[NMeNle][Ahp(2)]P[Tle]SC[AEEA][γGlu][AEEA][Aun]-OH; thioether N-14) |
